{
  "source": "patent US6962933B1",
  "about": "“Method for inhibiting p38 MAP kinase or TNF-α production using a 1,3-thiazole” (Takeda Pharmaceutical Company Limited, priority 1999, dated 2005)",
  "data": [
    {"units": {"melting point": "°C"}, "values": [
      {"smiles": "CNc1nc(-c2ccc(F)cc2)c(-c2ccncc2)s1", "note": "[Reference Example 13-69, N-methyl [4-(4-fluorophenyl)-5-(4-pyridyl)-1,3-thiazol-2-yl]amine]", "melting point": "205 to 206"},
      {"smiles": "CC(=O)Nc1nc(-c2cccc(Cl)c2)c(-c2ccncc2)s1", "note": "[Reference Example 23-49, N-[4-(3-chlorophenyl)-5-(4-pyridyl)-1,3-thiazol-2-yl]acetamide]", "melting point": "290 to 293"},
      {"smiles": "Nc1nc(-c2ccc(Cl)cc2)c(-c2ccncc2)s1", "note": "[Reference Example 23-61, [4-(4-chlorophenyl)-5-(4-pyridyl)-1,3-thiazol-2-yl]amine]", "melting point": "> 300"},
      {"smiles": "Cc1cc(C)cc(-c2nc(NC(=O)Nc3ccccc3)sc2-c2ccncc2)c1", "note": "[Reference Example 23-315, N-[4-(3,5-dimethylphenyl)-5-(4-pyridyl)-1,3-thiazol-2-yl]-N′-phenylurea]", "melting point": "167 to 169"},
      {"smiles": "CSc1ccc(-c2nc(-c3cccc(C)c3)c(-c3ccncc3)s2)cc1", "note": "[Reference Example 44-7, methyl 4-[4-(3-methylphenyl)-5-(4-pyridyl)-1,3-thiazol-2-yl]phenylsulfide]", "melting point": "101 to 102"},
      {"smiles": "COc1ccc(-c2nc(NC(=O)CO)sc2-c2ccncc2)cc1", "note": "[Reference Example 23-329, 2-hydroxy-N-[4-(4-methoxyphenyl)-5-(4-pyridyl)-1,3-thiazol-2-yl]acetamide]", "melting point": "228 to 230"},
      {"smiles": "CNc1nc(-c2ccc3c(c2)CCC3)c(-c2cccnc2)s1", "note": "[13-74]", "melting point": "172 to 173"},
      {"smiles": "Cc1cc(C)cc(-c2nc(NCc3ccccc3)sc2-c2ccncc2)c1", "note": "[Reference Example 23-281, N-benzyl-[4-(3,5-dimethylphenyl)-5-(4-pyridyl)-1,3-thiazol-2-yl]amine]", "melting point": "186 to 188"},
      {"smiles": "Cc1cc(C)cc(-c2nc(NC(=O)c3cccc(C(=O)O)c3)sc2-c2ccncc2)c1", "note": "[Reference Example 23-342, 3-[[[4-(3,5-dimethylphenyl)-5-(4-pyridyl)-1,3-thiazol-2-yl]amino]carbonyl]benzoic acid]", "melting point": "350 to 353"},
      {"smiles": "Nc1nc(-c2cccc(Cl)c2)c(-c2ccncc2)s1", "note": "[Reference Example 23-59, [4-(3-chlorophenyl)-5-(4-pyridyl)-1,3-thiazol-2-yl]amine]", "melting point": "256 to 258"},
      {"smiles": "Cc1cccc(-c2nc(-c3ccc([S+](C)[O-])cc3)sc2-c2ccncc2)c1", "note": "(centres unmarked) [Reference Example 44-8, methyl 4-[4-(3-methylphenyl)-5-(4-pyridyl)-1,3-thiazol-2-yl]phenylsulfoxide]", "melting point": "188 to 189"},
      {"smiles": "CC(=O)Nc1nc(-c2ccccc2)c(-c2ccncc2)s1", "note": "[Reference Example 23-71, N-[4-phenyl-5-(4-pyridyl)-1,3-thiazol-2-yl]acetamide]", "melting point": "294 to 297"},
      {"smiles": "Nc1nc(-c2ccccc2)c(-c2ccncc2)s1", "note": "[Reference Example 13-15, [4-phenyl-5-(4-pyridyl)-1,3-thiazol-2-yl]amine]", "melting point": "248 to 250"},
      {"smiles": "Cc1ccc(-c2nc(-c3ccc(C[S+]([O-])Cc4ccc(-c5nc(-c6ccc(C)c(C)c6)c(-c6ccncc6)s5)cc4)cc3)sc2-c2ccncc2)cc1C", "note": "[Reference Example 23-327, 4-[4-(3,4-dimethylphenyl)-5-(4-pyridyl)-1,3-thiazol-2-yl]phenylmethylsulfoxide]", "melting point": "161 to 164"},
      {"smiles": "Cc1ccc(-c2nc(-c3ccc(CS(=O)(=O)Cc4ccc(-c5nc(-c6ccc(C)c(C)c6)c(-c6ccncc6)s5)cc4)cc3)sc2-c2ccncc2)cc1C", "note": "[Reference Example 23-328, 4-[4-(3,4-dimethylphenyl)-5-(4-pyridyl)-1,3-thiazol-2-yl]phenylmethylsulfone]", "melting point": "194 to 196"},
      {"smiles": "COc1ccc(-c2nc(Nc3ccccc3)sc2-c2ccncc2)cc1", "note": "[Reference Example 23-80, N-phenyl-[4-(4-methoxyphenyl)-5-(4-pyridyl)-1,3-thiazol-2-yl]amine]", "melting point": "287 to 289"},
      {"smiles": "O=C(Cc1ccccc1)Nc1nc(-c2ccccc2)c(-c2ccncc2)s1", "note": "[Reference Example 23-29, 2-phenyl-N-[4-phenyl-5-(4-pyridyl)-1,3-thiazol-2-yl]acetamide]", "melting point": "233 to 234"},
      {"smiles": "O=S(=O)(Cc1ccc(-c2nc(-c3ccc(Cl)cc3)c(-c3ccncc3)s2)cc1)Cc1ccc(-c2nc(-c3ccc(Cl)cc3)c(-c3ccncc3)s2)cc1", "note": "[Reference Example 23-314, 4-[4-(4-chlorophenyl)-5-(4-pyridyl)-1,3-thiazol-2-yl]phenylmethylsulfone]", "melting point": "202 to 204"},
      {"smiles": "CCCNc1nc(-c2cc(C)cc(C)c2)c(-c2ccncc2)s1", "note": "[Reference Example 23-276, N-propyl-[4-(3,5-dimethylphenyl)-5-(4-pyridyl)-1,3-thiazol-2-yl]amine]", "melting point": "177 to 180"},
      {"smiles": "COc1ccc(-c2nc(-c3ccc(SC)cc3)sc2-c2ccncc2)cc1", "note": "[Reference Example 23-300, methyl 4-[2-[4-(methylthio)phenyl]-5-(4-pyridyl)-1,3-thiazol-4-yl]phenyl ether]", "melting point": "127 to 128"},
      {"smiles": "Cc1cc(C)cc(-c2nc(NC(=O)c3ccc(C(=O)O)cc3)sc2-c2ccncc2)c1", "note": "[Reference Example 23-337, 4-[[[4-(3,5-dimethylphenyl)-5-(4-pyridyl)-1,3-thiazol-2-yl]amino]carbonyl]benzoic acid]", "melting point": "347 to 349"},
      {"smiles": "COc1ccc(-c2nc(NC(=O)C(C)O)sc2-c2ccncc2)cc1", "note": "(centres unmarked) [Reference Example 23-325, 2-hydroxy-N-[4-(4-methoxyphenyl)-5-(4-pyridyl)-1,3-thiazol-2-yl]propionamide]", "melting point": "221 to 222"},
      {"smiles": "COc1ccc(-c2nc(NC(=O)Nc3ccccc3)sc2-c2ccncc2)cc1", "note": "[Reference Example 23-296, N-[4-(4-methoxyphenyl)-5-(4-pyridyl)-1,3-thiazol-2-yl]-N′-phenylurea]", "melting point": "217 to 219"},
      {"smiles": "Cc1cc(C)cc(-c2nc(NC(=O)c3ccncc3)sc2-c2ccncc2)c1", "note": "[Reference Example 23-200, N-[4-(3,5-dimethylphenyl)-5-(4-pyridyl)-1,3-thiazol-2-yl]isonicotinamide]", "melting point": "302 to 304"},
      {"smiles": "CCC(=O)Nc1nc(-c2cccc(C)c2)c(-c2ccncc2)s1", "note": "[Reference Example 23-52, N-[4-(3-methylphenyl)-5-(4-pyridyl)-1,3-thiazol-2-yl]propionamide]", "melting point": "258 to 260"},
      {"smiles": "CCC(=O)Nc1nc(-c2cccc(Cl)c2)c(-c2ccncc2)s1", "note": "[Reference Example 23-50, N-[4-(3-chlorophenyl)-5-(4-pyridyl)-1,3-thiazol-2-yl]propionamide]", "melting point": "289 to 290"},
      {"smiles": "COc1ccc(-c2nc(N)sc2-c2ccncc2)cc1", "note": "[Reference Example 13-14, [4-(4-methoxyphenyl)-5-(4-pyridyl)-1,3-thiazol-2-yl]amine]", "melting point": "282 to 284"},
      {"smiles": "O=S(=O)(Cc1ccc(-c2nc(-c3ccc(F)cc3)c(-c3ccncc3)s2)cc1)Cc1ccc(-c2nc(-c3ccc(F)cc3)c(-c3ccncc3)s2)cc1", "note": "[Reference Example 23-313, 4-[4-(4-fluorophenyl)-5-(4-pyridyl)-1,3-thiazol-2-yl]phenylmethylsulfone]", "melting point": "191 to 194"},
      {"smiles": "Fc1ccc(-c2nc(-c3ccccc3)sc2-c2ccncc2)cc1", "note": "[Reference Example 44-1, 4-(4-fluorophenyl)-2-phenyl-5-(4-pyridyl)-1,3-thiazole]", "melting point": "135 to 137"},
      {"smiles": "COc1ccc(-c2nc(NC(C)C)sc2-c2ccncc2)cc1", "note": "[Reference Example 23-291, N-isopropyl-[4-(4-methoxyphenyl)-5-(4-pyridyl)-1,3-thiazol-2-yl]amine]", "melting point": "161 to 163"},
      {"smiles": "Cc1ccc(-c2nc(N)sc2-c2ccncc2)cc1", "note": "[Reference Example 23-62, [4-(4-methylphenyl)-5-(4-pyridyl)-1,3-thiazol-2-yl]amine]", "melting point": "296 to 298"},
      {"smiles": "CCCCNc1nc(-c2cc(C)cc(C)c2)c(-c2ccncc2)s1", "note": "[Reference Example 23-280, N-butyl-[4-(3,5-dimethylphenyl)-5-(4-pyridyl)-1,3-thiazol-2-yl]amine]", "melting point": "165 to 168"},
      {"smiles": "CNc1nc(-c2ccccc2)c(-c2ccncc2)s1", "note": "[Reference Example 13-47, N-methyl [4-phenyl-5-(4-pyridyl)-1,3-thiazol-2-yl]amine]", "melting point": "191 to 192"},
      {"smiles": "COc1ccc(-c2nc(NC(=O)c3ccc(C(=O)O)cc3)sc2-c2ccncc2)cc1", "note": "[Reference Example 23-299, 4-[[[4-(4-methoxyphenyl)-5-(4-pyridyl)-1,3-thiazol-2-yl]amino]carbonyl]benzoic acid]", "melting point": "332 to 335"},
      {"smiles": "CNc1nc(-c2ccc(Br)cc2)c(-c2ccncc2)s1", "note": "[Reference Example 13-71, N-methyl [4-(4-bromophenyl)-5-(4-pyridyl)-1,3-thiazol-2-yl]amine]", "melting point": "206 to 207"},
      {"smiles": "COc1ccc(-c2nc(NC(=O)c3ccncc3)sc2-c2ccncc2)cc1", "note": "[Reference Example 23-102, N-[4-(4-methoxyphenyl)-5-(4-pyridyl)-1,3-thiazol-2-yl]isonicotinamide]", "melting point": "295 to 297"},
      {"smiles": "CCCNc1nc(-c2ccc(OC)cc2)c(-c2ccncc2)s1", "note": "[Reference Example 23-290, N-propyl-[4-(4-methoxyphenyl)-5-(4-pyridyl)-1,3-thiazol-2-yl]amine]", "melting point": "141 to 142"},
      {"smiles": "CCNC(=O)Nc1nc(-c2ccc(OC)cc2)c(-c2ccncc2)s1", "note": "[Reference Example 23-156, N-ethyl-N′-[4-(4-methoxyphenyl)-5-(4-pyridyl)-1,3-thiazol-2-yl]urea]", "melting point": "224 to 226"},
      {"smiles": "CCNc1nc(-c2ccc(OC)cc2)c(-c2ccncc2)s1", "note": "[Reference Example 23-269, N-ethyl-[4-(4-methoxyphenyl)-5-(4-pyridyl)-1,3-thiazol-2-yl]amine]", "melting point": "175 to 176"},
      {"smiles": "O=C(CCc1ccccc1)Nc1nc(-c2ccccc2)c(-c2ccncc2)s1", "note": "[Reference Example 23-30, 3-phenyl-N-[4-phenyl-5-(4-pyridyl)-1,3-thiazol-2-yl]propionamide]", "melting point": "214 to 216"},
      {"smiles": "Cc1ccc(-c2nc(-c3ccc(CSCc4ccc(-c5nc(-c6ccc(C)c(C)c6)c(-c6ccncc6)s5)cc4)cc3)sc2-c2ccncc2)cc1C", "note": "[Reference Example 23-326, 4-[4-(3,4-dimethylphenyl)-5-(4-pyridyl)-1,3-thiazol-2-yl]phenylmethylsulfide]", "melting point": "159 to 161"}
    ]}
  ]
}
